Key:
Homo sapiens = species on record: Homo sapiens; test: Selectivity index, ratio of EC50 for agonist activity at OX1R (unknown origin) to EC50 for agonist activity at OX2R (unknown origin)
[1] = molecular target: T1, Orexin/Hypocretin receptor type 1 (Homo sapiens, UniProt O43613); test: Agonist activity at OX1R (unknown origin); format: functional
T1 sequence (O43613 whole entry): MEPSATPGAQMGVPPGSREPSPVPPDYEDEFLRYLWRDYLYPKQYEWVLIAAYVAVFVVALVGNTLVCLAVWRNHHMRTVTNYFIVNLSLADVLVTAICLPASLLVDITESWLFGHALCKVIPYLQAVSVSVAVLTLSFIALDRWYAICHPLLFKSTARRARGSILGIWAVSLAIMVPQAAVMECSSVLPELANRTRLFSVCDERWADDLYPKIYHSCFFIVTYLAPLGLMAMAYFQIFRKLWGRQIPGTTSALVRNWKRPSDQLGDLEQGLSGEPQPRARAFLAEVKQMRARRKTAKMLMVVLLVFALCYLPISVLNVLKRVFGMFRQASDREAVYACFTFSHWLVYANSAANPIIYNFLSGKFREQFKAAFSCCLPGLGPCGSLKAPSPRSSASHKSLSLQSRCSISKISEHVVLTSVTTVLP

Orexin receptor type 2 = molecular target: T2, Orexin receptor type 2 (Homo sapiens, UniProt O43614); test: Agonist activity at OX2R (unknown origin); format: functional
T2 sequence (O43614 whole entry): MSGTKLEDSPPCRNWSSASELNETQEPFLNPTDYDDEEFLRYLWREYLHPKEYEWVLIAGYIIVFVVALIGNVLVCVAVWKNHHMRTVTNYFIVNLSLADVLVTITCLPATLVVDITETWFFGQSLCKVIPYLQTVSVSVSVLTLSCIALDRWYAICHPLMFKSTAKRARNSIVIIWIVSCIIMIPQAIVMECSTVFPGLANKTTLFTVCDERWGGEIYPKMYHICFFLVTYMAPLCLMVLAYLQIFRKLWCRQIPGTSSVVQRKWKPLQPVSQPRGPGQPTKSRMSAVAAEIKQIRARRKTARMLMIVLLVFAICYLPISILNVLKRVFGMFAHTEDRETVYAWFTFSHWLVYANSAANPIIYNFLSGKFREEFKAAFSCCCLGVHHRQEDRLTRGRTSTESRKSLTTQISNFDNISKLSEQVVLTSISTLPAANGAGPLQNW

[2] = molecular target: T3, Orexin/Hypocretin receptor type 1 (Homo sapiens) (UniProt O43613); test: Agonist activity at OX1R (unknown origin) assessed as maximum efficacy at 10 uM relative to control; format: functional
T3 sequence (whole entry): T1 sequence (O43613 whole entry)

[3] = molecular target: T4, Orexin receptor type 2 (Homo sapiens) (UniProt O43614); test: Agonist activity at OX2R (unknown origin) assessed as maximum efficacy at 10 uM relative to control; format: functional
T4 sequence (whole entry): T2 sequence (O43614 whole entry)

Compound	Ratio EC50 (Homo sapiens)	EC50 [1]	EC50 (Orexin receptor type 2)	Emax [2]	Emax ([2]; filed as agonist)	Emax [3]
COc1cccc(CC(=O)OC2CCCc3ccc(NS(=O)(=O)c4cc(-c5cccc(C(=O)N(C)C)c5)ccc4OC)cc32)c1 (stereo not given)	14	5780 nM	413 nM	–	–	–
COc1ccc(-c2cccc(C(=O)N(C)C)c2)cc1S(=O)(=O)Nc1ccc2c(c1)C(N(C)C(=O)Cc1cccnc1)CCC2 (stereo not given)	7.83	1180 nM	151 nM	–	–	–
COC(=O)N1CCC[C@H](NS(C)(=O)=O)[C@@H]1CO[C@H]1CC[C@@H](c2ccccc2)CC1 [DANAVOREXTON]	–	> 30000 nM	–	–	–	–
H-MTLIGAAHNGSAQLLRQLRGQLGPPGSR-NH2	41.7	–	–	–	–	–
COc1ccc(-c2cccc(C(=O)N(C)C)c2)cc1S(=O)(=O)Nc1ccc2c(c1)C(N(C)C(=O)Cc1cccc(O)c1)CCC2 (stereo not given)	12.5	713 nM	57 nM	–	–	–
COc1cccc(CC(=O)N(CC2CC2)C2CCCc3ccc(NS(=O)(=O)c4cc(-c5cccc(C(=O)N(C)C)c5)ccc4OC)cc32)c1 (stereo not given)	–	> 10000 nM	78.1 nM	18.7%	–	–
COc1cccc(CC(=O)NC2CCCc3ccc(NS(=O)(=O)c4cc(-c5cccc(C(=O)N(C)C)c5)ccc4OC)cc32)c1 (stereo not given)	8.61	229 nM	26.6 nM	–	–	–
COc1ccc(-c2cccc(C(=O)N(C)C)c2)cc1S(=O)(=O)Nc1ccc2c(c1)C(N(C)C(=O)c1ccccc1)CCC2 (stereo not given)	–	> 10000 nM	618 nM	8.61%	–	–
COc1ccc(-c2cccc(C(=O)N(C)C)c2)cc1S(=O)(=O)Nc1ccc2c(c1)C(N(C)C(=O)CCc1ccccc1)CCC2 (stereo not given)	2.95	372 nM	126 nM	–	–	–
CCN(C(=O)Cc1cccc(OC)c1)C1CCCc2ccc(NS(=O)(=O)c3cc(-c4cccc(C(=O)N(C)C)c4)ccc3OC)cc21 (stereo not given)	18.4	356 nM	19.3 nM	–	–	–
CCCN(C(=O)Cc1cccc(OC)c1)C1CCCc2ccc(NS(=O)(=O)c3cc(-c4cccc(C(=O)N(C)C)c4)ccc3OC)cc21 (stereo not given)	89.6	3920 nM	43.7 nM	–	–	–
COc1ccc(-c2cccc(C(=O)N(C)C)c2)cc1S(=O)(=O)Nc1ccc2c(c1)C(N(C)C(=O)Nc1ccccc1)CCC2 (stereo not given)	–	3250 nM	–	–	–	–
COc1ccc(CN(C)C2CCc3ccc(NS(=O)(=O)c4cc(-c5cccc(C(=O)N(C)C)c5)ccc4OC)cc32)cc1 (stereo not given)	87.8	287 nM	3.27 nM	–	–	–
COc1ccc(-c2cccc(C(=O)N(C)C)c2)cc1S(=O)(=O)Nc1ccc2c(c1)C(N(C)C(=O)C1CCCCC1)CCC2 (stereo not given)	–	> 10000 nM	837 nM	–	44.3%	–
COc1cccc(CC(=O)N(C)[C@H]2CCCc3ccc(NS(=O)(=O)c4cc(-c5cccc(C(=O)N(C)C)c5)ccc4OC)cc32)c1	461	1240 nM	2.69 nM	–	–	–
COc1cccc(CC(=O)N(C)c2cccc3ccc(NS(=O)(=O)c4cc(-c5cccc(C(=O)N(C)C)c5)ccc4OC)cc23)c1	1.79	402 nM	224 nM	–	–	–
CCCCC(=O)N(C)C1CCCc2ccc(NS(=O)(=O)c3cc(-c4cccc(C(=O)N(C)C)c4)ccc3OC)cc21 (stereo not given)	2.18	4180 nM	1920 nM	–	–	–
COc1cccc(CC(=O)N(C)c2cccc3c2CC(NS(=O)(=O)c2cc(-c4cccc(C(=O)N(C)C)c4)ccc2OC)CC3)c1 (stereo not given)	–	5490 nM	> 10000 nM	–	–	39.9%

Second part, the compound after the results:

Ratio EC50 (Homo sapiens)	EC50 [1]	EC50 (Orexin receptor type 2)	Emax [2]	Emax ([2]; filed as agonist)	Emax [3]	Compound
20.3	30.7 nM	1.51 nM	–	–	–	COc1cccc(CC(=O)N(C)C2CCCc3ccc(NS(=O)(=O)c4cc(-c5cccc(C(=O)N(C)C)c5)ccc4OC)cc32)c1 (racemic)
15.9	89 nM	5.59 nM	–	–	–	COc1ccc(-c2cccc(C(=O)N(C)C)c2)cc1S(=O)(=O)Nc1ccc2c(c1)C(N(C)C(=O)Cc1cccc(N(C)C)c1)CCC2 (stereo not given)
25.8	55.3 nM	2.14 nM	–	–	–	CCOc1cccc(CC(=O)N(C)C2CCCc3ccc(NS(=O)(=O)c4cc(-c5cccc(C(=O)N(C)C)c5)ccc4OC)cc32)c1 (stereo not given)
–	120 nM	–	–	–	–	COc1ccc(CC(=O)N(C)C2CCCc3ccc(NS(=O)(=O)c4cc(-c5cccc(C(=O)N(C)C)c5)ccc4OC)cc32)cc1 (stereo not given)
23.3	13.5 nM	0.579 nM	–	–	–	COc1cccc(CC(=O)N(C)[C@@H]2CCCc3ccc(NS(=O)(=O)c4cc(-c5cccc(C(=O)N(C)C)c5)ccc4OC)cc32)c1
10.5	112 nM	10.7 nM	–	–	–	COc1ccc(-c2cccc(C(=O)N(C)C)c2)cc1S(=O)(=O)Nc1ccc2c(c1)C(N(C)C(=O)Cc1ccccc1)CCC2 (stereo not given)
25.7	92.2 nM	3.59 nM	–	–	–	COc1ccccc1CC(=O)N(C)C1CCCc2ccc(NS(=O)(=O)c3cc(-c4cccc(C(=O)N(C)C)c4)ccc3OC)cc21 (stereo not given)
13.3	86.3 nM	6.5 nM	–	–	–	COc1ccc(-c2cccc(C(=O)N(C)C)c2)cc1S(=O)(=O)Nc1ccc2c(c1)C(N(C)C(=O)Cc1cccc(F)c1)CCC2 (stereo not given)
